Laboratory results published in patent publication US11696581B2, “Monoterpenoid/phenylpropanoid-containing compounds and methods of their making and use as seed treatments” (KITTRICH CORPORATION, priority 2016, dated 2023).

Legend:
Assay type in all cases: in vivo
[1] = system: Western corn rootworm larvae; experiment: Western corn rootworm survival assay (treated corn seeds); conditions: corn seeds coated 1% weight/weight; 6 neonatal larvae per cup; 7 days at 28° C.; α=0.05; control survival 67.8±3.7%
Procedure: Solo® condiment cups with lids. Germination of seeds was performed by carefully applying 500 μL of de-ionized water in order to fully surround each seed with water at the bottom of the cup. Parafilm® wax was placed over the top of the cup to maintain moisture and encourage germination of the seeds. Cups containing moistened seeds were allowed to germinate in the dark for 3 days before the start of the assay. Six live neonatal Western corn rootworm larvae were carefully applied to the roots of germinated corn seeds for each cup. After applying the larvae to the roots, 30 g of dried soil, sieved with a 600-μm Fisher Brand sieve and moistened with 4.5 mL of water, was applied evenly throughout the cup. Organza was placed over the top of the cup and fastened in place with a cup lid. Cups were incubated at 28° C. in 40-50% humidity for 7 days. Surviving corn rootworm were enumerated and the average percentage survival was reported. A minimum of 10 replicates were performed for each treatment.

[2] = system: Western corn rootworm larvae; experiment: Western corn rootworm repellency assay (treated vs untreated corn sides); conditions: one week; for repellency: larvae isolated from untreated end vs treated end: choice between treated and untreated corn, 30 larvae, control 52% treated side / 48% untreated side; for larval mortality (missing larvae declared dead) in repellency arena: one side treated seeds, control 20% declared dead
Source text: Three treated seeds were germinated on one side of a plastic Genpack deli container (32 oz.) 5 days prior to infesting the container with western corn rootworm larvae. On the other side, three untreated seeds were germinated at the same time diagonally across from the treated seeds. Containers were infested by placing 30 rootworm into the middle of the container, on the top of the soil. Rootworm were allowed to choose which side to feed on primarily. Containers infested with western corn rootworm were incubated at 28° C. and 40±10% relative humidity for one week. After one week, containers were removed and soil was mechanically sifted through to quantify the number of living larvae. The total number of larvae present on the treated side vs. the untreated side were averaged from a minimum of three replicates. If repellency was observed (i.e. more rootworm found on the untreated side than the treated side), the experiment was repeated to confirm repellency in subsequent experiments. The number of rootworm missing were also enumerated. Data was averaged from a minimum of three replicates and over 90 larvae used in the total repellency assessment for each compound.

[3] = system: corn seeds; experiment: Germination assays of coated corn seeds; conditions: 3 days dark then one week in soil, root mats and radicals emerged or not
Procedure: Germination of seeds was performed by carefully applying 500 μL of de-ionized water in order to fully surround each seed with water at the bottom of the cup. Parafilm wax was placed over the top of the cup to maintain moisture and encourage germination of the seeds. Cups containing moistened seeds were allowed to germinate in the dark for 3 days before 30 g of soil was introduced into the cup, with 4.5 mL of water added to the soil to moisten it. Seeds were allowed to grow for one week before removing the soil and assessing total germination. Germination was quantified as whether or not root mats and radicals emerged from the moistened seed casing. The total number of seeds in each cup (out of three seeds) that germinated were quantified. Over 4 replicates of this experiment were performed for each monoterpenoid derivative treatment screened.

Molecule	larval survival compared to the control [1]	repellency: larvae isolated from untreated end vs treated end [2]	inhibition of germination of corn seedlings [3]	larval mortality (missing larvae declared dead) in repellency arena [2]	larvae associated with the treated corn side ([2]; average, choice arena, control approximately 52%) [%]
Cc1ccc(C(C)C)c(OC(=O)/C=C/c2ccccc2)c1 [thymyl cinnamate]	significantly lower larval survival than the control	higher number of larvae to be isolated from the untreated end compared to the treated end			
O=C(O)CCC(=O)OC/C=C/c1ccccc1 [cinnamyl hydrogen succinate]	significantly lower larval survival than the control		most significant inhibitors of germination of corn seedlings		
CC(C)=CCCC(C)CC(=O)OCCOC(=O)CC(C)CCC=C(C)C (stereo not shown) [ethylene dicitronellate, Ethylene dicitronellate]	significantly lower larval survival than the control			higher larval mortality that was statistically significant compared to the control	
CCCCCCCCCCCCCC(=O)OCC=Cc1ccccc1 [cinnamyl myristate]	significantly lower larval survival than the control			higher larval mortality that was statistically significant compared to the control	
CC(C)=CCCC(C)CCOC(=O)CC(C)CCC=C(C)C (stereo not shown) [citronellyl citronellate]	significantly lower larval survival than the control				
eugenyl succinate	significantly lower larval survival than the control	higher number of larvae to be isolated from the untreated end compared to the treated end		higher larval mortality that was statistically significant compared to the control	
C=CCc1ccc(OC(=O)CC(C)CCC=C(C)C)c(OC)c1 (stereo not shown) [eugenyl citronellate]			most significant inhibitors of germination of corn seedlings		
Cc1ccc(C(C)C)c(OC(=O)CCC(=O)O)c1 [thymyl hydrogen succinate]	significantly lower larval survival than the control				
CC(C)=CCCC(C)CC(=O)OC1C(OC(=O)CC(C)CCC=C(C)C)C(OC(=O)CC(C)CCC=C(C)C)C(OC(=O)CC(C)CCC=C(C)C)C(OC(=O)CC(C)CCC=C(C)C)C1OC(=O)CC(C)CCC=C(C)C (stereo not shown) [inositol hexacitronellate, hexacitronelloylinositol]	significantly lower larval survival than the control	higher number of larvae to be isolated from the untreated end compared to the treated end	most significant inhibitors of germination of corn seedlings		22
O=C(/C=C/c1ccccc1)OC1C(OC(=O)/C=C/c2ccccc2)C(OC(=O)/C=C/c2ccccc2)C(OC(=O)/C=C/c2ccccc2)C(OC(=O)/C=C/c2ccccc2)C1OC(=O)/C=C/c1ccccc1 (stereo not shown) [hexacinnamoyl inositol, hexacinnamoylinositol]		higher number of larvae to be isolated from the untreated end compared to the treated end			
